Source: patent US12390441B2, “Immunomodulating o-het/aryl azalides” (Zoetis Services LLC, priority 2020, dated 2025)
Marks after values point to notes of the source that are not given here.

Tested on: BRD pathogens, M. haemolytica and P. multocida
Assay: In-vitro MIC model, BRD pathogen screening panel
Type: cell-based, Mannheimia haemolytica; Pasteurella multocida
Conditions: for MIC flag at the example number (Table E) / MIC flag at the example number (Table A): at least one BRD strain

| SMILES | MIC flag at the example number (Table E) | also measured |
| --- | --- | --- |
| CCCNC[C@]1(O)[C@H](C)O[C@@H](O[C@H]2[C@H](C)[C@@H](O[C@@H]3O[C@H](C)C[C@H](N(C)C(=O)N(C)c4ccccc4)[C@H]3Oc3ccc(C#N)cc3)[C@](C)(O)C[C@@H](C)CN[C@H](C)[C@@H](O)[C@](C)(O)[C@@H](CC)OC(=O)[C@@H]2C)C[C@@]1(C)OC [Example F-21] | – | MIC for at least one BRD strain (asterisk on Ex#) (Table F, Formula (1-A1a) compounds): F-21* (MIC ≤ 64 μg/mL for at least one BRD strain) |
| CCCNC[C@]1(O)[C@H](C)O[C@@H](O[C@H]2[C@H](C)[C@@H](O[C@@H]3O[C@H](C)C[C@H](NC)[C@H]3Oc3ccc(-n4cccc4)cc3)[C@](C)(O)C[C@@H](C)CN[C@H](C)[C@@H](O)[C@](C)(O)[C@@H](CC)OC(=O)[C@@H]2C)C[C@@]1(C)OC [Example E-82] | E-82* (MIC ≤ 64 μg/mL for at least one BRD strain) | – |
| CCCNC[C@]1(O)[C@H](C)O[C@@H](O[C@H]2[C@H](C)[C@@H](O[C@@H]3O[C@H](C)C[C@H](NC)[C@H]3Oc3cccc4cc[nH]c34)[C@](C)(O)C[C@@H](C)CN[C@H](C)[C@@H](O)[C@](C)(O)[C@@H](CC)OC(=O)[C@@H]2C)C[C@@]1(C)OC [Example E-65] | E-65* (MIC ≤ 64 μg/mL for at least one BRD strain) | – |
| CC[C@H]1OC(=O)[C@H](C)[C@@H](O[C@H]2C[C@@](C)(OC)[C@@H](O)[C@H](C)O2)[C@H](C)[C@@H](O[C@@H]2O[C@H](C)C[C@H](N(C)C)[C@H]2Oc2ccc(OC)nc2C)[C@](C)(O)C[C@@H](C)CN(C)[C@H](C)[C@@H](O)[C@]1(C)O [Example A-38] | – | MIC flag at the example number (Table A): A-38* (MIC ≤ 64 μg/mL for at least one BRD strain) |
| CC[C@H]1OC(=O)[C@H](C)[C@@H](O[C@H]2C[C@@](C)(OC)[C@](O)(CNCCN(C)C)[C@H](C)O2)[C@H](C)[C@@H](O[C@@H]2O[C@H](C)C[C@H](N(C)C)[C@H]2Oc2ccc(OC)cc2)[C@](C)(O)C[C@@H](C)CN[C@H](C)[C@@H](O)[C@]1(C)O [Example E-107] | E-107* (MIC ≤ 64 μg/mL for at least one BRD strain) | – |
| CC[C@H]1OC(=O)[C@H](C)[C@@H](O[C@H]2C[C@@](C)(OC)[C@@H](O)[C@H](C)O2)[C@H](C)[C@@H](O[C@@H]2O[C@H](C)C[C@H](N(C)C)[C@H]2Oc2ccccc2Cl)[C@](C)(O)C[C@@H](C)CN(C)[C@H](C)[C@@H](O)[C@]1(C)O [Example A-10] | – | MIC flag at the example number (Table A): A-10* (MIC ≤ 64 μg/mL for at least one BRD strain) |
| CC[C@H]1OC(=O)[C@H](C)[C@@H](O[C@H]2C[C@@](C)(OC)[C@@H](O)[C@H](C)O2)[C@H](C)[C@@H](O[C@@H]2O[C@H](C)C[C@H](N(C)C)[C@H]2Oc2cc(OC)cc(OC)c2)[C@](C)(O)C[C@@H](C)CN(C)[C@H](C)[C@@H](O)[C@]1(C)O [Example A-48] | – | MIC flag at the example number (Table A): A-48* (MIC ≤ 64 μg/mL for at least one BRD strain) |
| CC[C@H]1OC(=O)[C@H](C)[C@@H](O[C@H]2C[C@@](C)(OC)[C@@H](O)[C@H](C)O2)[C@H](C)[C@@H](O[C@@H]2O[C@H](C)C[C@H](NC)[C@H]2Oc2cnc(OC)nc2)[C@](C)(O)C[C@@H](C)CN(C)[C@H](C)[C@@H](O)[C@]1(C)O [Example A-15] | – | MIC flag at the example number (Table A): A-15* (MIC ≤ 64 μg/mL for at least one BRD strain) |
| CCCNC[C@]1(O)[C@H](C)O[C@@H](O[C@H]2[C@H](C)[C@@H](O[C@@H]3O[C@H](C)C[C@H](N(C)C)[C@H]3Oc3ccccc3OCC)[C@](C)(O)C[C@@H](C)CN[C@H](C)[C@@H](O)[C@](C)(O)[C@@H](CC)OC(=O)[C@@H]2C)C[C@@]1(C)OC [Example E-96] | E-96* (MIC ≤ 64 μg/mL for at least one BRD strain) | – |
| CC[C@H]1OC(=O)[C@H](C)[C@@H](O[C@H]2C[C@@](C)(OC)[C@@H](O)[C@H](C)O2)[C@H](C)[C@@H](O[C@@H]2O[C@H](C)C[C@H](NC)[C@H]2Oc2cncc(C(F)(F)F)c2)[C@](C)(O)C[C@@H](C)CN(C)[C@H](C)[C@@H](O)[C@]1(C)O [Example A-13, (2R,3S,4R,5R,8R,10R,11R,12S,13S,14R)-2-ethyl-3,4,10-trihydroxy-13-(((2R,4R,5S,6S)-5-hydroxy-4-methoxy-4,6-dimethyltetrahydro-2H-pyran-2-yl)oxy)-3,5,6,8,10,12,14-heptamethyl-11-(((2S,3R,4S,6R)-6-methyl-4-(methylamino)-3-((5-(trifluoromethyl)pyridin-3-yl)oxy)tetrahydro-2H-pyran-2-yl)oxy)-1-oxa-6-azacyclopentadecan-15-one] | – | MIC flag at the example number (Table A): A-13* (MIC ≤ 64 μg/mL for at least one BRD strain) |
| CCCNC[C@]1(O)[C@H](C)O[C@@H](O[C@H]2[C@H](C)[C@@H](O[C@@H]3O[C@H](C)C[C@H](NC)[C@H]3Oc3ccc(OC(F)(F)F)cc3)[C@](C)(O)C[C@@H](C)CN[C@H](C)[C@@H](O)[C@](C)(O)[C@@H](CC)OC(=O)[C@@H]2C)C[C@@]1(C)OC [Example E-101] | E-101* (MIC ≤ 64 μg/mL for at least one BRD strain) | – |
| CC[C@H]1OC(=O)[C@H](C)[C@@H](O[C@H]2C[C@@](C)(OC)[C@@H](O)[C@H](C)O2)[C@H](C)[C@@H](O[C@@H]2O[C@H](C)C[C@H](NC)[C@H]2Oc2ccc(F)c(S(C)(=O)=O)c2)[C@](C)(O)C[C@@H](C)CN(C)[C@H](C)[C@@H](O)[C@]1(C)O [Example A-22] | – | MIC flag at the example number (Table A): A-22* (MIC ≤ 64 μg/mL for at least one BRD strain) |
| CCCNC[C@]1(O)[C@H](C)O[C@@H](O[C@H]2[C@H](C)[C@@H](O[C@@H]3O[C@H](C)C[C@H](NC)[C@H]3Oc3cc(F)cc(F)c3)[C@](C)(O)C[C@@H](C)CN[C@H](C)[C@@H](O)[C@](C)(O)[C@@H](CC)OC(=O)[C@@H]2C)C[C@@]1(C)OC [Example E-16] | E-16* (MIC ≤ 64 μg/mL for at least one BRD strain) | – |
| CCCNC[C@]1(O)[C@H](C)O[C@@H](O[C@H]2[C@H](C)[C@@H](O[C@@H]3O[C@H](C)C[C@H](NC)[C@H]3Oc3ccc(F)cc3F)[C@](C)(O)C[C@@H](C)CN[C@H](C)[C@@H](O)[C@](C)(O)[C@@H](CC)OC(=O)[C@@H]2C)C[C@@]1(C)OC [Example E-58] | E-58* (MIC ≤ 64 μg/mL for at least one BRD strain) | – |
| CCCNC[C@]1(O)[C@H](C)O[C@@H](O[C@H]2[C@H](C)[C@@H](O[C@@H]3O[C@H](C)C[C@H](N(C)C)[C@H]3Oc3ccc4ccncc4c3)[C@](C)(O)C[C@@H](C)CN[C@H](C)[C@@H](O)[C@](C)(O)[C@@H](CC)OC(=O)[C@@H]2C)C[C@@]1(C)OC [Example E-85] | E-85* (MIC ≤ 64 μg/mL for at least one BRD strain) | – |
| CCCNC[C@]1(O)[C@H](C)O[C@@H](O[C@H]2[C@H](C)[C@@H](O[C@@H]3O[C@H](C)C[C@H](NC)[C@H]3Oc3ccc([N+](=O)[O-])cc3)[C@](C)(O)C[C@@H](C)CN[C@H](C)[C@@H](O)[C@](C)(O)[C@@H](CC)OC(=O)[C@@H]2C)C[C@@]1(C)OC [Example E-35] | E-35* (MIC ≤ 64 μg/mL for at least one BRD strain) | – |
| CCCNC[C@]1(O)[C@H](C)O[C@@H](O[C@H]2[C@H](C)[C@@H](O[C@@H]3O[C@H](C)C[C@H](N(C)C)[C@H]3Oc3ccccc3C#N)[C@](C)(O)C[C@@H](C)CN[C@H](C)[C@@H](O)[C@](C)(O)[C@@H](CC)OC(=O)[C@@H]2C)C[C@@]1(C)OC [Example E-105] | E-105* (MIC ≤ 64 μg/mL for at least one BRD strain) | – |
| CCCNC[C@]1(O)[C@H](C)O[C@@H](O[C@H]2[C@H](C)[C@@H](O[C@@H]3O[C@H](C)C[C@H](NC)[C@H]3Oc3cccnc3OCC)[C@](C)(O)C[C@@H](C)CN[C@H](C)[C@@H](O)[C@](C)(O)[C@@H](CC)OC(=O)[C@@H]2C)C[C@@]1(C)OC [Example E-59] | E-59* (MIC ≤ 64 μg/mL for at least one BRD strain) | – |
| CCCNC[C@]1(O)[C@H](C)O[C@@H](O[C@H]2[C@H](C)[C@@H](O[C@@H]3O[C@H](C)C[C@H](NC)[C@H]3Oc3ccc(F)c(C)c3)[C@](C)(O)C[C@@H](C)CN[C@H](C)[C@@H](O)[C@](C)(O)[C@@H](CC)OC(=O)[C@@H]2C)C[C@@]1(C)OC [Example E-22] | E-22* (MIC ≤ 64 μg/mL for at least one BRD strain) | – |
| CC[C@H]1OC(=O)[C@H](C)[C@@H](O[C@H]2C[C@@](C)(OC)[C@](O)(CNC3CC3)[C@H](C)O2)[C@H](C)[C@@H](O[C@@H]2O[C@H](C)C[C@H](N(C)C)[C@H]2Oc2ccccc2)[C@](C)(O)C[C@@H](C)CN[C@H](C)[C@@H](O)[C@]1(C)O [Example E-140] | E-140* (MIC ≤ 64 μg/mL for at least one BRD strain) | – |
| CCCNC[C@]1(O)[C@H](C)O[C@@H](O[C@H]2[C@H](C)[C@@H](O[C@@H]3O[C@H](C)C[C@H](N(C)C)[C@H]3Oc3ccc(OC)nc3)[C@](C)(O)C[C@@H](C)CN[C@H](C)[C@@H](O)[C@](C)(O)[C@@H](CC)OC(=O)[C@@H]2C)C[C@@]1(C)OC [Example E-133] | E-133* (MIC ≤ 64 μg/mL for at least one BRD strain) | – |
| CCOc1ccc(O[C@H]2[C@H](O[C@@H]3[C@@H](C)[C@H](O[C@H]4C[C@@](C)(OC)[C@@H](O)[C@H](C)O4)[C@@H](C)C(=O)O[C@H](CC)[C@@](C)(O)[C@H](O)[C@@H](C)N(C)C[C@H](C)C[C@@]3(C)O)O[C@H](C)C[C@@H]2NC)cc1 [Example A-17] | – | MIC flag at the example number (Table A): A-17* (MIC ≤ 64 μg/mL for at least one BRD strain) |
| CCCNC[C@]1(O)[C@H](C)O[C@@H](O[C@H]2[C@H](C)[C@@H](O[C@@H]3O[C@H](C)C[C@H](NC)[C@H]3Oc3cc(F)ccc3OC)[C@](C)(O)C[C@@H](C)CN[C@H](C)[C@@H](O)[C@](C)(O)[C@@H](CC)OC(=O)[C@@H]2C)C[C@@]1(C)OC [Example E-17] | E-17* (MIC ≤ 64 μg/mL for at least one BRD strain) | – |
| CCCNC[C@]1(O)[C@H](C)O[C@@H](O[C@H]2[C@H](C)[C@@H](O[C@@H]3O[C@H](C)C[C@H](NC)[C@H]3Oc3ccncc3)[C@](C)(O)C[C@@H](C)CN[C@H](C)[C@@H](O)[C@](C)(O)[C@@H](CC)OC(=O)[C@@H]2C)C[C@@]1(C)OC [Example E-32] | E-32* (MIC ≤ 64 μg/mL for at least one BRD strain) | – |
| CC[C@H]1OC(=O)[C@H](C)[C@@H](O[C@H]2C[C@@](C)(OC)[C@](O)(CNc3ccccc3)[C@H](C)O2)[C@H](C)[C@@H](O[C@@H]2O[C@H](C)C[C@H](NC)[C@H]2Oc2ccccc2)[C@](C)(O)C[C@@H](C)CN[C@H](C)[C@@H](O)[C@]1(C)O [Example E-137] | E-137* (MIC ≤ 64 μg/mL for at least one BRD strain) | – |
